Source: US8084457B2, “Pharmaceutically active 4,6-disubstituted aminopyrimidine derivatives as modulators of protein kinases” (Lead Discovery Center GmbH, priority 2003, dated 2011)

Columns and labels:
[1] = system: NFκB-dependent transcriptional activity; assay: NFκB-dependent transcriptional activity (NIH 3T3 75E 11/300D8 cell line); format: cell-based
Text: NFκB-dependent Transcriptional Activity:
The used NIH 3T3 75E 11/300D8 cell line is described elsewhere (J. Eickhoff et al., Journal of Biological Chemistry, 2004, 279(10), 9642-9652).
It is known, that CDK9 regulates the NFκB-dependent transitional activity. With Compound 4, Compound 7 and Compound 30 studies were done, to evaluate their effect on NFκB-dependent transcriptional activity.

HBV = HBV replication assay in HepG2-2.2.15 cells; format: cell-based
Method: To test anti—HBV-activity of compounds the HBV-producing cell line HepG2-2.2.15 (M. A. Sells, PNAS 1987, 84, 1005-1009) was used. 1.0×10^4 cells were seeded in 96-well microtiter plates in DMEM medium supplemented with 10% FCS. After incubation at 37° C. in 5% CO2 atmosphere for 24 hours the medium was replaced with fresh medium containing the appropriately diluted compound. 3 days later medium was replaced by freshly prepared inhibitor-containing medium and the cells were incubated for further 3 days. Subsequently 200 μl lysis buffer (50 mM Tris-Cl 7.5; 1 mM EDTA 8.0; 0.5% NP40) per well was added. To remove cell debris and […], lysate was centrifuged (15000 rpm, 10 min, 4° C.). Cellular and viral RNA was removed by addition of 2 μl of RNase. 100 μl of the samples were spotted onto an uncharged nylon membrane pre-wetted with PBS (phosphate-buffered saline) using a 96 well-blotting chamber (MINIfold Dot-Blot, Schleicher&Schüll). After further washing with 200 μl PBS per well the membrane was treated twice with 0.5 M NaOH, 1.5 M NaCl (2 min) and 4 times with 0.5 M Tris 7.5, 3 M NaCl (1 min). The nucleic acids were fixed by UV-treatment and used for hybridisabon with a radioactive HBV-fragment prepared from the overgenome-length HBV-plasmid pT-HBV1.3 (L. G. Guidotti et al., Journal of Virology 1995., 69(10), 6158-6169).
The fixed membrane was pre-hybridized in a standard hybridisation buffer (50% formamide, 5×SSPE, 10×Denhards, 1% SDS, 100 μg/ml salmon sperm DNA) for at least 3 hours at 42° C. and hybridised overnight against the labelled HBV-fragment. The preparation of the HBV-fragment with the “Random primers DNA labelling system” (Invitrogen) was done according to the manufacturer's instructions. Hybridized filter were washed at room temperature with 2×SSC, at 62° C. with 2×SSC, 0.5% SDS and at 62° C. with 0.5×SSC, 0.5% SDS. Each washing step was carried out twice. The intensity of the HBV-DNA was quantified using a phosphoimager (Fuji). […] Absorbance was monitored at 570 nm and 600 nm wavelength.

HepG2-2.2.15-cells = format: cell-based
Method: The fixed membrane was pre-hybridized in a standard hybridisation buffer (50% formamide, 5×SSPE, 10×Denhards, 1% SDS, 100 μg/ml salmon sperm DNA) for at least 3 hours at 42° C. and hybridised overnight against the labelled HBV-fragment. The preparation of the HBV-fragment with the “Random primers DNA labelling system” (Invitrogen) was done according to the manufacturer's instructions. Hybridized filter were washed at room temperature with 2×SSC, at 62° C. with 2×SSC, 0.5% SDS and at 62° C. with 0.5×SSC, 0.5% SDS. Each washing step was carried out twice. The intensity of the HBV-DNA was quantified using a phosphoimager (Fuji). To test the cell viability 0.5×10^4 HepG2-2.2.15-cells were seeded in 96-well-microtiter plates in DMEM medium supplemented with 10% fetal bovine serum. After incubation at 37° C. for 24 hours the medium was replaced by fresh compound-containing medium. 3 days later medium was replaced again by freshly prepared medium containing the inhibitor and the cells were incubated for further 3 days at 37° C. After the incubation period 1/10 volume of Alamar Blue (Serotec) solution containing a growth dependant indicator was added and the cells were incubated for 3 h at 37° C. Absorbance was monitored at 570 nm and 600 nm wavelength.

CDK5/p35 = molecular target: T1, CDK5/p35 (Homo sapiens, UniProt Q00535); assay: Kinase assay determining CDK5/p35 activity (selectivity panel); format: biochemical; conditions: 10 μM of compound, in comparison to DMSO (0% inhibition)
T1 construct: purchased Upsate (Upstate)
Method: Kinase Assays Determining CDK2/CyclinA and CDK5/p35 Activity:
Kinase assays were performed as described by the manufacturers recommendations (Proqinase for CDK2/CyclinA and Upsate for CDK5/p35).
The activity of these protein kinases is depicted as % inhibition in the presence of 10 μM of compound in comparison to DMSO (0% inhibition).

Abl = Abl (Homo sapiens, UniProt P00519); assay: General kinase assay, selectivity panel: Abl; format: biochemical; conditions: 10 μM of compound, in comparison to DMSO (0% inhibition)
Method in brief: (§1)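 Values are percent inhibition at 10 μM compound versus DMSO, derived from scintillation counts of 33P-labelled substrate retained on phosphoric-acid-washed filter plates. Each kinase reacted with substrate, ATP and [γ-33P]ATP for one hour at room temperature before EDTA quench.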

CDK1 = CDK1 (Homo sapiens, UniProt P06493); assay: General kinase assay, selectivity panel: CDK1; format: biochemical; conditions: 10 μM of compound, in comparison to DMSO (0% inhibition)
Method in brief: as §1

EGFR = EGFR (Homo sapiens, UniProt P00533); assay: General kinase assay, selectivity panel: EGFR; format: biochemical; conditions: 10 μM of compound, in comparison to DMSO (0% inhibition)
Method in brief: as §1

PDGFR = assay: General kinase assay, selectivity panel: PDGFR; format: biochemical; conditions: 10 μM of compound, in comparison to DMSO (0% inhibition)
Method in brief: as §1

CDK9 = molecular target: T2, CDK9 (Homo sapiens, UniProt P50750); assay: Affinity chromatography with immobilised compound, PM1 cell lysate, mass spectrometry: CDK9; format: binding; conditions: compound coupled to ECH-Sepharose
T2 construct: endogenous in cells; host or cells: PM1 cells (lysate)
Method: (§2) Affinity Chromatography Experiments:
(§3) Coupling to epoxy-groups: 500 μl drained epoxy-activated Sepharose 6B (Amersham Biosciences) equilibrated to 50% DMF/0.1M Na2CO3 were resuspended in 1 ml 20 mM Compound 102 or 20 mM Compound 103, respectively, dissolved in 50% DMF (Dimethylfomamid)/0.1 M Na2CO3. 5 μl 10M NaOH was added followed by incubation overnight at 30° C. with permanent shaking in the dark. After washing three times in 1 ml 50% DMF/0.1M Na2CO3 the beads were incubated in 1 ml 1M ethanolamine for 6 h at 30° C. with permanent shaking in the dark followed by the denoted washing steps: 50% DMF/0.1M Na2CO3, then H2O, then 0.1M NaHCO3 pH 8.0/0.5M NaCl followed by 0.1M NaAc pH 4.0/0.1M NaCl and finally three times in chromatography buffer (see below) containing 150 mM NaCl. As control matrix epoxy-activated Sepharose 6B was incubated with 1M ethanolamine and equally treated as described above. The beads were stored in 20% ethanol at 4° C. in the dark.
Carbodiimide coupling: ECH-Sepharose 4B (Amersham Biosciences) was washed according to the manufacturer's instructions and equilibrated to 50% DMF/50% ethanol. 2.5 ml drained beads were resuspended in 5 ml 15 mM Compound 102 or Compound 103, respectively, dissolved in 50% DMF/50% ethanol followed by drop by drop addition of 750 μl 1M 1-ethyl-3-(3-dimethylaminopropyl) carbodiimide hydrochloride (EDC), dissolved in 50% DMF/50% ethanol. […]

[2] = system: protein kinases of PM1 cell lysates; assay: Affinity chromatography with immobilised compound, PM1 cell lysate, mass spectrometry: additional targets; format: binding
Method: as §2, §3
Carbodiimide coupling: ECH-Sepharose 4B (Amersham Biosciences) was washed according to the manufacturer's instructions and equilibrated to 50% DMF/50% ethanol. 2.5 ml drained beads were resuspended in 5 ml 15 mM Compound 102 or Compound 103, respectively, dissolved in 50% DMF/50% ethanol followed by drop by drop addition of 750 μl 1M 1-ethyl-3-(3-dimethylaminopropyl) carbodiimide hydrochloride (EDC), dissolved in 50% DMF/50% ethanol. The suspension was incubated overnight at room temperature with permanent end-over-end rotation and washed three times with 15 ml 50% DMF/50% ethanol prior to the addition of 5 ml 33% DMF/33% ethanol/34% 1M ethanolamine pH 8.0 and 650 μl EDC. After 2 h incubation at room temperature with permanent end-over-end rotation, beads were washed three times with 15 ml 50% DMF/50% ethanol, twice with 15 ml 0.5M NaCl and once with 15 ml 20% ethanol. Control beads were incubated with 5 ml 1M ethanolamine instead of compound and treated equally as described above. The beads were stored in 20% ethanol at 4° C. in the dark.
Affinity Chromatography and Preparative Gel Electrophoresis.
1.25×10^9 PM1 cells were lysed in 15 ml buffer containing 50 mM HEPES pH 7.5, 400 mM NaCl, 0.5% Triton X-100, 1 mM EDTA, 1 mM EGTA, 3 mM MgCl2, 1 mM DTT plus additives (10 mM sodium fluoride, 1 mM orthovanadate, 10 μg/ml aprotinin, 10 μg/ml leupeptin, 1 mM PMSF), cleared by centrifugation and adjusted to 1M NaCl. The filtered lysate was loaded with a flow rate of 100 μl/min on a […] chromatography column containing 500 μl Compound 102 or Compound 103 matrix, respectively, equilibrated to chromatography buffer (20 mM HEPES pH 7.5, 0.25% Triton X-100, 1 mM EDTA, 1 mM EGTA) containing 1M NaCl. […]

GSK-3β = GSK-3β (Homo sapiens, UniProt P49841); assay: General kinase assay, selectivity panel: GSK-3β; format: biochemical; conditions: 10 μM of compound, in comparison to DMSO (0% inhibition)
Method in brief: as §1

[3] = compound coupled to ECH-Sepharose, mass spectrometry

T1 sequence (Q00535 whole entry): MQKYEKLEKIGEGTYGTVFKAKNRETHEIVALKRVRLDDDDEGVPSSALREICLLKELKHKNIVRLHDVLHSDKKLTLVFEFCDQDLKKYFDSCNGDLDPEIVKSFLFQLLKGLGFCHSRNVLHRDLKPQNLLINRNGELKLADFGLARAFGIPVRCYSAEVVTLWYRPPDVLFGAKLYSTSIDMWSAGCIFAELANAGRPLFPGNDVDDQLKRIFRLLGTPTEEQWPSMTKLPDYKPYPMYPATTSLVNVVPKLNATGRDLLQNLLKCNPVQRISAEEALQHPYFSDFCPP
T1 sequence (Q15078 whole entry partner): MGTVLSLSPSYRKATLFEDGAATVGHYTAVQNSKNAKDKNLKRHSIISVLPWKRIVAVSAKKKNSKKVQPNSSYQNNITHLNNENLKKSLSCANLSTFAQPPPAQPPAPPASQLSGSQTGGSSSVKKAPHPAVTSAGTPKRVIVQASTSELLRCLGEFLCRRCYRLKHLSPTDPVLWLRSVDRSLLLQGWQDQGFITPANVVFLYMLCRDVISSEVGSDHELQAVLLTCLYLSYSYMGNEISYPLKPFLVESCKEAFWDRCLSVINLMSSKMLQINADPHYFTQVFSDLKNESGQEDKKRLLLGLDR
Chain of EGFR (P00533 25-1210, species assumed): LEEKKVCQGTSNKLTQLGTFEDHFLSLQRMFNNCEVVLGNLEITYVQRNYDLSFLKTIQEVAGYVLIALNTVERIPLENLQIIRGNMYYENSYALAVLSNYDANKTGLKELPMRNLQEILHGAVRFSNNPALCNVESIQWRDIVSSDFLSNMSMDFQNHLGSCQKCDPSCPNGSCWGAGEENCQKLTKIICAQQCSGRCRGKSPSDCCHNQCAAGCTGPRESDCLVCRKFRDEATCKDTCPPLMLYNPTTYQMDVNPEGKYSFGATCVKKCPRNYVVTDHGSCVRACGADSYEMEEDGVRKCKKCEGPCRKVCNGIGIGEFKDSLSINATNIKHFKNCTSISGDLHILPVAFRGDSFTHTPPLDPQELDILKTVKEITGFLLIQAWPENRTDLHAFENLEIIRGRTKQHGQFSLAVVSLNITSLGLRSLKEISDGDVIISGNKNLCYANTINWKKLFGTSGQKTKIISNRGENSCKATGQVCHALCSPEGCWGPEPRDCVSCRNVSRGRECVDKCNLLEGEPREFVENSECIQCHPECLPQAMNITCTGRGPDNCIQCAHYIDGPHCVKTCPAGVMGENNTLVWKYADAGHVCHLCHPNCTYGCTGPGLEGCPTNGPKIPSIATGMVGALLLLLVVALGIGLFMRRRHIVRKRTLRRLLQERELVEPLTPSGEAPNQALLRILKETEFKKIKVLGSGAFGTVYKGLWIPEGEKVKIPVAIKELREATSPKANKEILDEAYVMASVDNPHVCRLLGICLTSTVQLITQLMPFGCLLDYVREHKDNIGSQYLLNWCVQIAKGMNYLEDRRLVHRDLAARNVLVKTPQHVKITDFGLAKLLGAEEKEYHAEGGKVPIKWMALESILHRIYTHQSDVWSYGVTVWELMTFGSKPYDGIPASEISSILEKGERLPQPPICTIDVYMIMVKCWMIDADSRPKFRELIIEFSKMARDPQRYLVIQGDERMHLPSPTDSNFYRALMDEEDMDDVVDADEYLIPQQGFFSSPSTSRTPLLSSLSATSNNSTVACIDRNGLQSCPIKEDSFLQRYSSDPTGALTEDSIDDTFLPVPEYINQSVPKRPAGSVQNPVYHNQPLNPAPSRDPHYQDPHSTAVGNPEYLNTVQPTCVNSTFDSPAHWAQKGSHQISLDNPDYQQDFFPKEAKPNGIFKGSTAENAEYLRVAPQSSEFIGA
Chain of CDK1 (P06493 whole entry, species assumed): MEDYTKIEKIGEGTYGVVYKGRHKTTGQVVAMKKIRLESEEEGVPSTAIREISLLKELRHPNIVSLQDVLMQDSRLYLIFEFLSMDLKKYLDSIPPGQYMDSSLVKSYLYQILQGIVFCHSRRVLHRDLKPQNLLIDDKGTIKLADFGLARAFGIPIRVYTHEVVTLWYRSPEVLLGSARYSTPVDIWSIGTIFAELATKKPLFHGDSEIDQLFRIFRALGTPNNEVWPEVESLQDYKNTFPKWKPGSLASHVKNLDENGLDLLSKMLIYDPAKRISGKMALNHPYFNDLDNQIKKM
Chain of CDK1 (P14635 whole entry partner, species assumed): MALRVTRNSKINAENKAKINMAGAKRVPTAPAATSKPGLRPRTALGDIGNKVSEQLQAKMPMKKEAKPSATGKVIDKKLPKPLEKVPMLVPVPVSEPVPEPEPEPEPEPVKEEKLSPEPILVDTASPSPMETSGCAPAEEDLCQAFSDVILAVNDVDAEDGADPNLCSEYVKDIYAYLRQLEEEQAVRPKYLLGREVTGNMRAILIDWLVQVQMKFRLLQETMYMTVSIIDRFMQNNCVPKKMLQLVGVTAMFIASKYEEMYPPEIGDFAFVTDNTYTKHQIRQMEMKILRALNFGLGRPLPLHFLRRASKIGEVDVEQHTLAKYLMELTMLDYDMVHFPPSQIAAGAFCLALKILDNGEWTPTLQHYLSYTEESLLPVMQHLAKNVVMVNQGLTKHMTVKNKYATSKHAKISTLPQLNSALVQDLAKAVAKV
T2 sequence (P50750 whole entry): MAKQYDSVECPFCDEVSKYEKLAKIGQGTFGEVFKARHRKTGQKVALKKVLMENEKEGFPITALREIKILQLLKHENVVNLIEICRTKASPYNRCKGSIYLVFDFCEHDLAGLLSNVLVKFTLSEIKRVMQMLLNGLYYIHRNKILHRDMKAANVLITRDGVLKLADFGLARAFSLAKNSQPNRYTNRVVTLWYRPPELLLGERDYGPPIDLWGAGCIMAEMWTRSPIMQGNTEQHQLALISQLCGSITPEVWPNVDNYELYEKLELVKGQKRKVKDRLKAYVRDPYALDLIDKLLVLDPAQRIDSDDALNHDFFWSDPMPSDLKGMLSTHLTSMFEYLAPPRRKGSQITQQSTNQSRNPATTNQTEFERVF
Chain of GSK-3β (P49841 whole entry, species assumed): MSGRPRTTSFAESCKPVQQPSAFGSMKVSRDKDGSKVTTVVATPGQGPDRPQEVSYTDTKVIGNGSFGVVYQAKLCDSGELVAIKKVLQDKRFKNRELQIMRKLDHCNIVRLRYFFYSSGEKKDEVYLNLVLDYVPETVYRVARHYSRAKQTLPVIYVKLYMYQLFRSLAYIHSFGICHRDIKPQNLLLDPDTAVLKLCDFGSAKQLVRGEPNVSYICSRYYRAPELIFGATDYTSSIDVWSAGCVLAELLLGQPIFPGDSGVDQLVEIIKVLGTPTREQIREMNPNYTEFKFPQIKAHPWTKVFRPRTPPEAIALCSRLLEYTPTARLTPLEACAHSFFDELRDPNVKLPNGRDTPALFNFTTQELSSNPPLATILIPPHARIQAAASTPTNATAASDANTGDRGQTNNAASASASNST
Chain of Abl (P00519 whole entry, species assumed): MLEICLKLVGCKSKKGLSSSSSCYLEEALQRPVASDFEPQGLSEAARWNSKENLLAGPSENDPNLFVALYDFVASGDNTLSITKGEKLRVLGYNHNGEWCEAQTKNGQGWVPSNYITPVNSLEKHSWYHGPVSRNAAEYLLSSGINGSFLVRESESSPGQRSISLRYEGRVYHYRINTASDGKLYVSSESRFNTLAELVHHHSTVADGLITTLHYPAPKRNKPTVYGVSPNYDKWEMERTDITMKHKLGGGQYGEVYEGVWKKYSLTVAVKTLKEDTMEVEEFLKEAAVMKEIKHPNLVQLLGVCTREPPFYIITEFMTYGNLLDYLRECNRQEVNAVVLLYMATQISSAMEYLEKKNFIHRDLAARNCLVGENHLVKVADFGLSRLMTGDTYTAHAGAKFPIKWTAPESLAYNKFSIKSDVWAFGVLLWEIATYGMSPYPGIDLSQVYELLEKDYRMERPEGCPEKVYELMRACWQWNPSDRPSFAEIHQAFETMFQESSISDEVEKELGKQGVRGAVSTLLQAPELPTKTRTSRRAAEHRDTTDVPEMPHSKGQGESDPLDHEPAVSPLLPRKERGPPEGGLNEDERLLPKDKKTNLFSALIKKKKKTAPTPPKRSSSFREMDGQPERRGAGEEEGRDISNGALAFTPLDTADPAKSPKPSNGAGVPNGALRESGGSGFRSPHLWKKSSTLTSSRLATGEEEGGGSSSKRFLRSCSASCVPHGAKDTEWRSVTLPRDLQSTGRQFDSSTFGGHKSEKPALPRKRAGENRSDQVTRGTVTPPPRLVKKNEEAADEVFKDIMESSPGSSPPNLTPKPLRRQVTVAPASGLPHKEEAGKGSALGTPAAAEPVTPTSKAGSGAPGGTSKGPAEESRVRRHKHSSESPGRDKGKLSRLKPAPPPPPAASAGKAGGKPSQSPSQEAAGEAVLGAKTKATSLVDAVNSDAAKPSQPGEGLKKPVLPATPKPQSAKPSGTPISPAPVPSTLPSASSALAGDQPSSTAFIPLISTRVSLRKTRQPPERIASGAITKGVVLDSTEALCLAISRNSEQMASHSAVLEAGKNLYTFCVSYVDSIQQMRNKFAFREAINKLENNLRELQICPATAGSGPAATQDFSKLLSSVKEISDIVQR

Row | inhibition at 10 µM (CDK5/p35) [%] | inhibition at 10 µM (Abl) [%] | inhibition at 10 µM (CDK1) [%] | inhibition at 10 µM (EGFR) [%] | PDGFR (% inhibition) (PDGFR) | isolation of CDK9 out of crude PM1 cell lysates by affinity medium (CDK9) | inhibition at 10 µM (GSK-3β) [%] | Compound | inhibition of NFκB (in words, compared with Compound 30) [1] | HBV replication (in words) (HBV) | viability of the cells in the HBV replication assay (HepG2-2.2.15-cells) | protein kinases in eluates: CaMK2β, MLK (MRK-alpha), yes, cdc2-like protein kinase (CDC2L5), CrkRS, MAK ([2]; LCMS analysis of eluates) | additional targets bound: CaMK2γ, CaMK2δ, CDK2, MRK-beta (ZAK) [2, 3] | protein kinases in eluates: CaMK2β, GSK3α, CDK2, CrkRS, receptor similar to FGFR-3 ([2]; LCMS analysis of eluates) | additional targets bound: GSK3β, c-Src tyrosine kinase (CSK) [2, 3]
1 | – | – | – | – | – | – | – | c1ccc(COc2ccccc2-c2cc(NCCc3ccncc3)ncn2)cc1 [Compound 7] | less effectively | inhibited replication | without affecting viability | – | – | – | –
2 | > 80 | 30 to 50 | 50 to 80 | > 80 | b (inhibition between 80 and 50%: b) | able to isolate CDK9 | – | COc1ccccc1-c1cc(Nc2ccc(NC(=O)CCN)cc2)ncn1 [Compound 102, 3-Amino-N-{4-[6-(2-methoxy-phenyl)-pyrimidin-4-ylamino]-phenyl}-propionamide] | – | – | – | identified | specifically bound | – | –
3 | 50 to 80 | – | 50 to 80 | > 80 | c (inhibition between 50 and 30%: c) | able to isolate CDK9 | 50 to 80 | NCCCOc1ccccc1-c1cc(Nc2ccc(NC(=O)c3ccc(N)cc3)cc2)ncn1 [Compound 103, 4-Amino-N-(4-{6-[2-(3-amino-propoxy)phenyl]-pyrimidin-4-ylamino}-phenyl)-benzamide] | – | – | – | – | – | detected | specifically bound
